pIC50: −log10 of the molar value.
Columns and labels:
[1] = system: lung cancer cells NCI-H1975; test: In vitro inhibitory activity of ADC against tumor cell growth (CCK-8), NCI-H1975; format: cell-based, Human; details: 6 days incubation
Description: (§1) Method for in vitro inhibitory activity assay of ADC: Human esophageal cancer cells OE-33, lung cancer cells NCI-H1975, and breast cancer cells MDA-MB-231 used for activity assays were respectively cultured in RPMI1640 (Cellmax), RPMI1640 (Cellmax), and DMEM (Cellmax) media containing 10% fetal bovine serum (FBS, Cellmax) to the exponential growth phase. After trypsinization, the cells were centrifuged, and the supernatant was discarded. The cells were resuspended with media and diluted to 3×10^4 cells/mL, 0.5×10^4 cells/mL and 1.5×10^4 cells/mL respectively. Then, 100 μL of each cell suspension was added to a 96-well cell culture plate, and the plate was returned to an incubator at 37° C. with 5% CO2 for overnight culture. The next day, the ADC to be tested was diluted to 2000 nM, 400 nM, 80 nM, 16 nM, 3.2 nM, 0.64 nM, 0.128 nM, and 0.026 nM using culture medium. The diluted ADC was added to a 96-well cell culture plate at 100 μL per well, with 3 replicates set for each concentration. For the negative control without ADC and the blank control, 100 μL of culture medium was added to each well. After the sample addition was finished, the plate was returned to the incubator at 37° C. with 5% CO2 for further incubation for 6 days. Upon completion of incubation, the cell culture plate was removed, and the medium in the plate was aspirated using a pipette. 100 μL of medium containing 10% CCK-8 was added to each well, followed by incubation at 37° C. for 3 h. After incubation, the plate was removed, protected from light, placed in a microplate reader, and the absorbance was measured at a test wavelength of 450 nm with a reference wavelength of 630 nm. Based on the absorbance values, the IC50 (Table 1) was calculated using four-parameter regression in GraphPad. The corresponding ADC drug containing Dxd was used as a positive control drug, which has the following structure: […]

[2] = system: Human esophageal cancer cells OE-33; test: In vitro inhibitory activity of ADC against tumor cell growth (CCK-8), OE-33; format: cell-based; details: OE-33 cells, 6 days incubation
Description: as §1

[3] = system: breast cancer cells MDA-MB-231; test: In vitro inhibitory activity of ADC against tumor cell growth (CCK-8), MDA-MB-231; format: cell-based, Human; details: MDA-MB-231 cells, 6 days incubation
Description: as §1

Substance	pIC50 [1]	pIC50 [2]	pIC50 [3]
7-(N-(IP140B-AcPEG4-Gly-Lys-PABC), N-(tetrahydropyran-4-yl)amino)ethyl-10,11-methylenedioxycamptothecin [ADC 8]	6.30 to 7.30	6.30 to 7.30	6.30 to 7.30
7-(N-(IP140B-Qx-PEG2-Gly-Lys-PABC), N-(tetrahydropyran-4-yl)amino)ethyl-10,11-methylenedioxycamptothecin [ADC 10]	> 8.30	7.30 to 8.30	> 8.30
7-(N-(HS627-mPEG2-Gly-Lys-PABC), N-(tetrahydropyran-4-yl)amino)ethyl-10,11-methylenedioxycamptothecin [ADC 3]	7.30 to 8.30	7.30 to 8.30	7.30 to 8.30
20-O-(IP140B-AcPEG2-Gly-Val-Ala-Gly-NHNHC)-7-(N-(tetrahydropyran-4-yl)amino)ethyl-10,11-methylenedioxycamptothecin [ADC 18]	> 8.30	> 8.30	> 8.30
7-(N-(HS627-mc-Val-Cit-PABC), N-(tetrahydropyran-4-yl)amino)ethyl-10,11-methylenedioxycamptothecin [ADC 1]	7.30 to 8.30	7.30 to 8.30	6.30 to 7.30
7-(N-(HS627-Ac-PEG2-Gly-Lys-PABC), N-((R)-tetrahydrofuran-3-yl)amino)ethyl-10,11-methylenedioxycamptothecin [ADC 13]	6.30 to 7.30	6.30 to 7.30	6.30 to 7.30
7-(N-(IP140B-mPEG2-Gly-Lys-PABC), N-(tetrahydropyran-4-yl)amino)ethyl-10,11-methylenedioxycamptothecin [ADC 4]	7.30 to 8.30	7.30 to 8.30	7.30 to 8.30
7-(N-(IP140B-AcPEG2-Gly-Lys-PABC), N-(tetrahydropyran-4-yl)amino)ethyl-10,11-methylenedioxycamptothecin [ADC 6]	7.30 to 8.30	7.30 to 8.30	6.30 to 7.30
7-(N-(IP140B-Ac-PEG2-Gly-Lys-PABC), N-((R)-tetrahydrofuran-3-yl)amino)ethyl-10,11-methylenedioxycamptothecin [ADC 14]	7.30 to 8.30	7.30 to 8.30	7.30 to 8.30
7-(N-(IP140B-Ac-PEG2-Gly-Lys-PABC), N-((S)-tetrahydrofuran-3-yl)amino)ethyl-10,11-methylenedioxycamptothecin [ADC 16]	6.30 to 7.30	6.30 to 7.30	6.30 to 7.30
7-(N-(IP140B-Qx-PEG2-Gly-Lys-PABC), N-((R)-tetrahydrofuran-3-yl)amino)ethyl-10,11-methylenedioxycamptothecin [ADC 12]	> 8.30	7.30 to 8.30	7.30 to 8.30
20-O-(IP140B-Ac-PEG4-daP-NHNHC)-7-(N-(tetrahydropyran-4-yl)amino)ethyl-10,11-methylenedioxycamptothecin [ADC 20]	> 8.30	> 8.30	> 8.30
7-(N-(HS627-AcPEG4-Gly-Lys-PABC), N-(tetrahydropyran-4-yl)amino)ethyl-10,11-methylenedioxycamptothecin [ADC 7]	6.30 to 7.30	< 6.60	6.30 to 7.30
7-(N-(HS627-AcPEG2-Gly-Lys-PABC), N-(tetrahydropyran-4-yl)amino)ethyl-10,11-methylenedioxycamptothecin [ADC 5]	6.30 to 7.30	< 6.60	6.30 to 7.30
7-(N-(IP140B-mc-Val-Cit-PABC), N-(tetrahydropyran-4-yl)amino)ethyl-10,11-methylenedioxycamptothecin [ADC 2]	> 8.30	7.30 to 8.30	7.30 to 8.30

Source: US20260216355A1, “ANTIBODY-DRUG CONJUGATE FROM N-OXYCYCLOALKYL SUBSTITUTED CAMPTOTHECIN DERIVATIVE” (priority 2022, published 2026)
